# Active and inactive are the calls of the source. The calls are words filed in the database; no cut-off is given here.
# Key:
# [1] = Reduction in cMyc expression in human COLO 320HSR cells incubated for 24 hrs by HTRF assay; type: functional, cell-based
# [2] = Permeability of the compound across artificial membrane by AMP assay; type: ADME; settings: PAMPA; read-out: permeability
# [3] = Clearance in CD1 mouse at 0.49 mg/kg, iv by LC-MS/MS analysis; type: ADME, organism-based; settings: in vivo
# [4] = Half life in CD1 mouse at 0.49 mg/kg, iv by LC-MS/MS analysis; type: ADME, organism-based; settings: in vivo
# [5] = Volume of distribution at steady state in CD1 mouse at 0.49 mg/kg, iv by LC-MS/MS analysis; type: ADME, organism-based; settings: in vivo, read-out: Vdss
# [6] = AUC (0 to inf) in CD1 mouse at 5.1 mg/kg, po by LC-MS/MS analysis; type: ADME, organism-based; design: time infinity, dose 5.1 mg/kg, route po; settings: in vivo
# [7] = Oral bioavailability in CD1 mouse at 5.1 mg/kg by LC-MS/MS analysis; type: ADME, organism-based; settings: in vivo
# [8] = Plasma protein binding in CD1 mouse at 5.1 mg/kg, po by LC-MS/MS analysis; type: ADME, organism-based; settings: read-out: PPB
# [9] = Clearance in Han Wistar rat at 1 mg/kg, iv by LC-MS/MS analysis; type: ADME, organism-based; settings: in vivo
# [10] = Half life in Han Wistar rat at 1 mg/kg, iv by LC-MS/MS analysis; type: ADME, organism-based; settings: in vivo
# [11] = Volume of distribution at steady state in Han Wistar rat at 1 mg/kg, iv by LC-MS/MS analysis; type: ADME, organism-based; settings: in vivo, read-out: Vdss
# [12] = AUC (0 to inf) in Han Wistar rat at 2.1 mg/kg, po by LC-MS/MS analysis; type: ADME, organism-based; design: time infinity, dose 2.1 mg/kg, route po; settings: in vivo
# [13] = Oral bioavailability in Han Wistar rat at 2.1 mg/kg by LC-MS/MS analysis; type: ADME, organism-based; settings: in vivo
# [14] = Plasma protein binding in Han Wistar rat at 2.1 mg/kg, po by LC-MS/MS analysis; type: ADME, organism-based; settings: read-out: PPB
# DOHH-2 [15] = assay: Decrease in c-MYC protein level in human DOHH-2 cells incubated for 6 hrs by Western blot analysis; type: functional, cell-based
# Burkitts lymphoma cell = assay: Growth inhibition of MYC-translocated human Burkitts lymphoma cells measured after 6 days by CellTiterGlo-assay; type: functional; settings: time 6.0 day
# DOHH-2 [16] = assay: Reduction in MYC mRNA level in po dosed mouse xenografted with human DOHH-2 cells by qRT-PCR analysis; type: functional, organism-based; settings: dose 15-100 mg/kg
# DOHH-2 [17] = assay: Anticancer activity against human DOHH-2 cells assessed as tumor growth inhibition at 30 mg/kg, po qd measured after 21 days; type: functional; settings: DOHH-2, 504 h, time 21 day, read-out: TGI
# DOHH-2 [18] = assay: Anticancer activity against human DOHH-2 cells assessed as tumor growth inhibition at 45 mg/kg, po qd measured after 21 days; type: functional; settings: DOHH-2, 504 h, time 21 day, read-out: TGI
# DOHH-2 [19] = assay: Anticancer activity against human DOHH-2 cells assessed as tumor growth inhibition at 30 mg/kg, po qd measured after 28 days; type: functional; settings: DOHH-2, 672 h, time 28 day, read-out: TGI
# DOHH-2 [20] = assay: Anticancer activity against human DOHH-2 cells assessed as reduction in MYC mRNA expression in tumor at 30 mg/kg, po qd measured after 28 days by qRT-PCR analysis; type: functional, organism-based; settings: time 28.0 day
# Mus musculus = assay: Toxicity in mouse assessed as decrease in body weight at 30 mg/kg, po qd measured after 28 days; type: organism-based; settings: in vivo, 672 h, time 28 day
# [21] = Clearance in CD1 mouse at 0.5 mg/kg, iv by LC-MS/MS analysis; type: ADME, organism-based; settings: in vivo
# [22] = Half life in CD1 mouse at 0.5 mg/kg, iv by LC-MS/MS analysis; type: ADME, organism-based; settings: in vivo
# [23] = Volume of distribution at steady state in CD1 mouse at 0.5 mg/kg, iv by LC-MS/MS analysis; type: ADME, organism-based; settings: in vivo, read-out: Vdss
compound,measurement,setting,value
CCNC(=O)c1cc(OC)c2c(c1)nc(-c1ccc(N3[C@@H](C)CC[C@@H]3C)nc1)n2C[C@@H]1CN(C)CCO1,EC50,[1],79.4 nM
same,Papp,[2],20.5 ×10⁻⁶ cm/s
same,clearance,[3],25 mL/min/kg
same,half-life,[4],0.75 h
same,Vd,[5],0.73 L/kg
same,AUC(0-inf),[6],1720 ng·h/mL
same,bioavailability,[7],35%
same,fraction unbound,[8],0.01
same,clearance,[9],22 mL/min/kg
same,half-life,[10],3.6 h
same,Vd,[11],2.6 L/kg
same,AUC(0-inf),[12],669 ng·h/mL
same,bioavailability,[13],40%
same,fraction unbound,[14],0.09
same,Activity,DOHH-2 [15],Active
same,growth inhibition (GI),Burkitts lymphoma cell,Active
same,Activity,DOHH-2 [16],Active
same,inhibition in vivo at 30 mg/kg,DOHH-2 [17],58%
same,inhibition in vivo at 45 mg/kg,DOHH-2 [18],89%
same,inhibition in vivo at 30 mg/kg,DOHH-2 [19],82%
same,Activity,DOHH-2 [20],Active
same,Activity,Mus musculus,Non-Toxic
same,clearance,[21],26 mL/min/kg
same,half-life,[22],1.9 h
same,Vd,[23],3.4 L/kg

# Reference: ChEMBL document CHEMBL5055661, “Cell-Based Drug Discovery: Identification and Optimization of Small Molecules that Reduce c-MYC Protein Levels in Cells” (J Med Chem, 2021)
